Test: method code SF-AS, from PMID: 43458
With CCCCCCCCOC(=O)c1cc(O)c(O)c(O)c1 the logP was 3.66.
With CC(C)COC(=O)c1cc(O)c(O)c(O)c1 the logP was 2.46.
CCOC(=O)c1cc(O)c(O)c(O)c1 gave a logP of 1.3.
With COC(=O)c1cc(O)c(O)c(O)c1 the logP was 0.86.
Work on CCCCOC(=O)c1cc(O)c(O)c(O)c1 yielded a logP of 2.41.
CCCOC(=O)c1cc(O)c(O)c(O)c1 showed a logP of 1.8.
